Earlier results on one compound are cited in PMC10425210 (The Journal of Clinical Investigation, 2023).

Details of data set [1]: method as in PMID 29008798. The settings on record: cited from earlier work.
Data set [2] relates to SHIV109CP3. Details: method as in PMID 31175822. The settings on record: cited from earlier work.

With `C#C[C@]1(CO)O[C@@H](n2cnc3c(N)nc(F)nc32)C[C@@H]1O` [islatravir], the “adverse finding during clinical development” value in data set [1] is “unanticipated lymphopenia”. Moreover, the prevention of infection entry in data set [2] is on record as “proven efficacy at preventing infection”.
